Values quoted from earlier work, collected in US20080302375A1 (priority 2003, published 2008).

Details: upon the smoking of a cigarette

CN1CCCC1c1cccnc1 (stereo not shown) [nicotine, 3-(1-methyl-2-pyrrolidinyl)-pyridine]
time for nicotine to reach the brain after inhalation: ten
